Results from the supplement of paper PMC10307832.

Columns and labels:
Assay in all cases: relative viability (nuclei count vs DMSO), 5 days (fraction); higher = more cells survive
SGI-1776 + OSI-027 = compound: CN1CCC(CNc2ccc3ncc(-c4cccc(OC(F)(F)F)c4)n3n2)CC1 [SGI-1776] + COc1cccc2cc(-c3nc([C@H]4CC[C@H](C(=O)O)CC4)n4ncnc(N)c34)[nH]c12 [OSI-027] (partner 0.5 µM)
Summary of the method: (§1)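 Lung cancer cell lines in 1536-well plates got either a single drug or a fixed anchor-drug dose together with five library-drug doses (not always all listed) in √10 steps, by pin tool, on the day after seeding. Nuclei were counted after 5 days, and relative viability is the treated-to-vehicle ratio of nuclei counts. Values are medians of duplicate plates.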

Entinostat + Foretinib = compound: Nc1ccccc1NC(=O)c1ccc(CNC(=O)OCc2cccnc2)cc1 [Entinostat] + COc1cc2c(Oc3ccc(NC(=O)C4(C(=O)Nc5ccc(F)cc5)CC4)cc3F)ccnc2cc1OCCCN1CCOCC1 [Foretinib] (partner 0.25 µM)
Summary of the method: as §1

[1] = compound: C1COCCN1C2=NC(=NC3=C2OC4=C3C=CC=N4)C5=CC(=CC=C5)NC(=O)C6=CN=C(C=C6)N + C[C@]1(O)C[C@@H](c2nc(-c3ccc4ccc(-c5ccccc5)nc4c3)c3c(N)nccn32)C1 [Linsitinib] (partner 1 µM)
Summary of the method: as §1

[2] = compound: C1COCCN1C2=NC(=NC3=C2OC4=C3C=CC=N4)C5=CC(=CC=C5)NC(=O)C6=CN=C(C=C6)N + Nc1ncn([C@H]2C[C@H](O)[C@@H](CO)O2)c(=O)n1 [Decitabine] (partner 2 µM)
Summary of the method: as §1

With UMC-11 the relative viability (SGI-1776 + OSI-027; first compound 0.08 µM) was 0.493, the relative viability (SGI-1776 + OSI-027; first compound 0.8 µM) was 0.466 and the relative viability (SGI-1776 + OSI-027; first compound 2.53 µM) was 0.396. The relative viability (SGI-1776 + OSI-027; first compound 8 µM) was 0.278, the relative viability (Entinostat + Foretinib; first compound 0.02 µM) was 1.22 and the relative viability (Entinostat + Foretinib; first compound 0.06325 µM) was 1.08. The relative viability (Entinostat + Foretinib; first compound 0.2 µM) was 0.834, the relative viability (Entinostat + Foretinib; first compound 0.6325 µM) was 0.273 and the relative viability (Entinostat + Foretinib; first compound 2 µM) was 0.201. For the same cell line, the relative viability ([1]; first compound 0.02 µM) was 0.966, the relative viability ([1]; first compound 0.06325 µM) was 1.04 and the relative viability ([1]; first compound 0.2 µM) was 1.11. For the same cell line, the relative viability ([1]; first compound 0.6325 µM) was 1.34, the relative viability ([1]; first compound 2 µM) was 0.666 and the relative viability ([2]; first compound 0.02 µM) was 0.582. The relative viability ([2]; first compound 0.06325 µM) was 0.537, the relative viability ([2]; first compound 0.2 µM) was 0.551 and the relative viability ([2]; first compound 0.6325 µM) was 0.537. For the same cell line, the relative viability ([2]; first compound 2 µM) was 0.573.
